Data reported in PMC4287973, “Tumor cell-specific inhibition of MYC function using small molecule inhibitors of the HUWE1 ubiquitin ligase” (EMBO Molecular Medicine, 2014).
Read-outs that look alike come from different tables or passages of the source.

Key:
[1] = molecular target: T1, HUWE1 (Homo sapiens, UniProt Q7Z6Z7); assay: In vivo (cellular) ubiquitination of MCL1 by ectopic HA-HUWE1 in HeLa cells; type: cell-based; conditions: HeLa cells transfected with MCL1, His-ubiquitin, inhibitor 16 hrs, read-out: IC50 relative MCL1 ubiquitination
T1 construct: expressed in transfected cells; host or cells: HeLa
T1 sequence (Q7Z6Z7 whole entry): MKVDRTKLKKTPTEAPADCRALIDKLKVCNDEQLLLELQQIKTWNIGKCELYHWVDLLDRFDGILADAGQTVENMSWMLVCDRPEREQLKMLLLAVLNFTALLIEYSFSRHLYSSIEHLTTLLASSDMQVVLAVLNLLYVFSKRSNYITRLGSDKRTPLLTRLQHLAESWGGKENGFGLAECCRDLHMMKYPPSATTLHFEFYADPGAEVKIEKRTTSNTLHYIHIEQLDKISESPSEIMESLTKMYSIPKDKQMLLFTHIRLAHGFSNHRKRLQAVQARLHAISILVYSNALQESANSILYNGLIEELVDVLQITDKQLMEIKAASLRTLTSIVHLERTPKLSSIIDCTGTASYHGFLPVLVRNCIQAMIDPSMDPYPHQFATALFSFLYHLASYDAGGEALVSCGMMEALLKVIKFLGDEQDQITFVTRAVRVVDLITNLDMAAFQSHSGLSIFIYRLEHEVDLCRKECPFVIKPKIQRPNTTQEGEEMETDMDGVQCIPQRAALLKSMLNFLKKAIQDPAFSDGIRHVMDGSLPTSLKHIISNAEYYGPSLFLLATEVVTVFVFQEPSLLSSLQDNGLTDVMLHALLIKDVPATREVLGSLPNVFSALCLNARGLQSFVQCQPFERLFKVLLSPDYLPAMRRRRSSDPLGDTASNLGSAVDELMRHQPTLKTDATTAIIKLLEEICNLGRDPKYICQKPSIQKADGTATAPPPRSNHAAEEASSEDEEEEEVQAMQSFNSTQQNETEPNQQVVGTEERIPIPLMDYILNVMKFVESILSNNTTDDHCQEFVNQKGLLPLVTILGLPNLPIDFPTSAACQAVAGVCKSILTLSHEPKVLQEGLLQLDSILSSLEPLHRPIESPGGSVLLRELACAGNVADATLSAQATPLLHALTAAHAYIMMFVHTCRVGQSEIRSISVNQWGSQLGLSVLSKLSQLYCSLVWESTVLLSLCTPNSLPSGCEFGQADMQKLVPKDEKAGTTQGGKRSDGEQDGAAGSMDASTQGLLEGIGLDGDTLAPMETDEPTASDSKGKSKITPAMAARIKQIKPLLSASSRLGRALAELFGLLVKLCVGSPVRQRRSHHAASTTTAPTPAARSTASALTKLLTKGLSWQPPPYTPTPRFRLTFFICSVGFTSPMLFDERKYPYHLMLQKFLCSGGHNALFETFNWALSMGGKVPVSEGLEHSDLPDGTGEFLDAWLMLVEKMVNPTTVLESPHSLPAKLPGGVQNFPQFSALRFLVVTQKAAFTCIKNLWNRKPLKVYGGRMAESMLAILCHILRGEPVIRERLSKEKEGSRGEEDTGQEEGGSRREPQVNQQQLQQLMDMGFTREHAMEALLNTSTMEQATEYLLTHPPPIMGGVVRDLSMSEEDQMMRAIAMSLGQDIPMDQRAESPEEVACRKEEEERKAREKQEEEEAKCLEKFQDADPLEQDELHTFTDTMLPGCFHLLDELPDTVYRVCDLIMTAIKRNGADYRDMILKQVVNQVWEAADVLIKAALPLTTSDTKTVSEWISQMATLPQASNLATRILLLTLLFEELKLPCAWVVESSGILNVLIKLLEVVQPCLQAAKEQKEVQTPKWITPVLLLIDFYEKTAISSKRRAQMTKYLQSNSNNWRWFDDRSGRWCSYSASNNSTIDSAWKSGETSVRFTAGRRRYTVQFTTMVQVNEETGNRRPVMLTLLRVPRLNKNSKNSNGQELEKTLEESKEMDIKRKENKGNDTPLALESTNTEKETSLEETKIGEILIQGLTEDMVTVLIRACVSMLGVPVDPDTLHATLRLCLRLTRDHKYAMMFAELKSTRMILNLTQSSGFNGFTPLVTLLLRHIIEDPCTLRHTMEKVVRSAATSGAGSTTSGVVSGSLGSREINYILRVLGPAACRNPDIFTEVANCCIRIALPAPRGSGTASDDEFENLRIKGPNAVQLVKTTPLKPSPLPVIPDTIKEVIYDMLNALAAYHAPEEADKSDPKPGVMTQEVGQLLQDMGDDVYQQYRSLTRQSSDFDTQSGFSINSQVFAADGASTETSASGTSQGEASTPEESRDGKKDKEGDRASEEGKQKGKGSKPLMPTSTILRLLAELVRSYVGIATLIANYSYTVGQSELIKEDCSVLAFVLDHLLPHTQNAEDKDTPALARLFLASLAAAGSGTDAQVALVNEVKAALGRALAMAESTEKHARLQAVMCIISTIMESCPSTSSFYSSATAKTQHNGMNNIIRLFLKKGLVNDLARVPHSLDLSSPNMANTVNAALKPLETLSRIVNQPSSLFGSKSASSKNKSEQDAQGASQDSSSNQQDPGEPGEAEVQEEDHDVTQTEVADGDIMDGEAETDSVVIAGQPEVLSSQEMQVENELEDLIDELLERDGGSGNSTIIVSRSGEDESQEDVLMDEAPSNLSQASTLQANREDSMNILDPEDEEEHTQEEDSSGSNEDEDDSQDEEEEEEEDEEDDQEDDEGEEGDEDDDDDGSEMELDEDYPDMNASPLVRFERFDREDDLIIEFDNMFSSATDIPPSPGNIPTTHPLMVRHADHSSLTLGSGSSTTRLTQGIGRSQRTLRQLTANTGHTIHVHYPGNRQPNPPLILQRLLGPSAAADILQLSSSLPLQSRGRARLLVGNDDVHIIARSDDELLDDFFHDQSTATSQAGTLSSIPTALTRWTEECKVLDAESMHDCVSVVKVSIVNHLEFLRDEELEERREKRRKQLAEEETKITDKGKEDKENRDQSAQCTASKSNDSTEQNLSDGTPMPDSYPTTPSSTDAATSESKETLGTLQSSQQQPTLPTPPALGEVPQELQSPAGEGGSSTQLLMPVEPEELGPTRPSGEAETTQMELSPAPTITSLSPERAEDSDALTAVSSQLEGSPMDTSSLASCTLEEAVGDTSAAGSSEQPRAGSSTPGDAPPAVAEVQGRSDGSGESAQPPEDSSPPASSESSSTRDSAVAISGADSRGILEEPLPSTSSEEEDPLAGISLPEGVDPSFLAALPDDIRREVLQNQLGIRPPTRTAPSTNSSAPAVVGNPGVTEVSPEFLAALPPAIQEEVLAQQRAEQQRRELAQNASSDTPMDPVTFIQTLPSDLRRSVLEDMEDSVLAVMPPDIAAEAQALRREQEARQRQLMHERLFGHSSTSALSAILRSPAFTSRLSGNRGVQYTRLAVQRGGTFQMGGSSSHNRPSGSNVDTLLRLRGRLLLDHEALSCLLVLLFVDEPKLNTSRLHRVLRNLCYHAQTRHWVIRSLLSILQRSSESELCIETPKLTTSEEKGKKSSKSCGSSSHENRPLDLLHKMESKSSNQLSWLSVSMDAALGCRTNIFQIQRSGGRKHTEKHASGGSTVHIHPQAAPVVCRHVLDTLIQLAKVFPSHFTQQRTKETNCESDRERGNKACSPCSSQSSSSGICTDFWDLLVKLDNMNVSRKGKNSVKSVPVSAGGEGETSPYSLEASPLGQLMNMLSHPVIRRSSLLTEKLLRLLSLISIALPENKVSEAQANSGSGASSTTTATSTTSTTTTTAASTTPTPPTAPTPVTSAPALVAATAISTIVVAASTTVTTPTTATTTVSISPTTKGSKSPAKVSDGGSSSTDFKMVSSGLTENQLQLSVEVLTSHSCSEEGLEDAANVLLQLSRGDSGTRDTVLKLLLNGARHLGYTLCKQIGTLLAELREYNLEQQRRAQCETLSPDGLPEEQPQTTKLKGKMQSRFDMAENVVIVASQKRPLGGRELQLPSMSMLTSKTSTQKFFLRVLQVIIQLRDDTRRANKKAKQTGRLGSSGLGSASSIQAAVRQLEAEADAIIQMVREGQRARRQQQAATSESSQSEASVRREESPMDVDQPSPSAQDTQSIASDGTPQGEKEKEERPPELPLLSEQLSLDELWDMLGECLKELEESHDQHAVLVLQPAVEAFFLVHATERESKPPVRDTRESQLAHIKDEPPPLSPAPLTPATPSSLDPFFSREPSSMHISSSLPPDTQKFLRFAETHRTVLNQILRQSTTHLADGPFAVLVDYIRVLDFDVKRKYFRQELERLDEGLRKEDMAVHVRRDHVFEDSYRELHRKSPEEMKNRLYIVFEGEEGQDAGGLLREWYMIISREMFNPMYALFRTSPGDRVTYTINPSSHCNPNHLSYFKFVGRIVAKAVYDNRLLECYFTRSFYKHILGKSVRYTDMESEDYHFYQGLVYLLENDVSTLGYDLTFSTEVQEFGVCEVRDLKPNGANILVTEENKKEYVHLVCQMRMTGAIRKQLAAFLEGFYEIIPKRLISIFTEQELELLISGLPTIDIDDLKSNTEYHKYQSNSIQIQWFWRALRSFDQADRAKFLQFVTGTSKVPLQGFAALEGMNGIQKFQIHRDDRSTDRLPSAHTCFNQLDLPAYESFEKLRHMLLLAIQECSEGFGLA
Text: HeLa cells were transfected with plasmids expressing MCL1, His-ubiquitin, and HA-HUWE1. […] After lysis, ubiquitin-modified proteins were recovered by Ni-NTA-Agarose and immunoblots of the eluates were probed with an antibody against MCL1. […] At the same time, cells were irradiated with 500 J/m^2 UVB and harvested after indicated time points. Immunoblots of the lysates were probed with antibodies recognizing either MCL1 or CDK2 as control. Quantification of the MCL1 protein levels for the according experiment is shown directly below the immunoblots. Diagrams below the immunoblots show mean protein levels ± SD (n = 5). From the data, the half-life of the MCL1 protein was determined with P-values calculated using a Student's t-test. • Effects of HUWE1 inhibition on levels of TopBP1. […] Cell lysates were fractionated in chromatin-bound and soluble non-chromatin-bound fractions. Immunoblots of the soluble fraction were incubated with indicated antibodies.
To test the efficacy of both compounds in tissue culture, we initially confirmed observations that HUWE1 ubiquitinates and degrades MCL1 in response to DNA damage (Zhong et al, [2005]). Consistent with these published data, steady-state levels of MCL1 decreased rapidly upon UV irradiation of U2OS cells and depletion of HUWE1 both enhanced steady-state levels of MCL1 and retarded the decrease upon UV irradiation (Supplementary Fig S4A). […]

[2] = test system: Ls174T cells; assay: Crystal violet growth assay of control and partially HUWE1-depleted Ls174T cells (IC50 shift); type: cell-based; conditions: Homo sapiens, 120 h, crystal violet after five days
Description: Partial shRNA-mediated depletion of HUWE1 led to a moderate, but highly significant reduction in IC50 value for growth inhibition by BI8622, arguing that growth inhibition is an on-target effect of the inhibitor (Supplementary Fig S6). […] Incubation with either compound retarded passage of Ls174T cells through all phases of the cell cycle, with the effect being strongest for G1. In contrast to colon carcinoma cells, HUWE1 is not required for proliferation of embryonic stem (ES) cells and deletion of HUWE1 instead delays the decrease of N-MYC levels that occurs upon removal of leukemia inhibitory factor (LIF) from the medium (Zhao et al, [2008]). […] Furthermore, inhibition of HUWE1 in crypt cultures of normal intestinal epithelial cells had no effect on expression of MYC target genes (Fig4G).
HCT116, HEK293T, HeLa, HT29, ES, Phoenix, and U2OS cells were cultivated in DMEM (Sigma). Ls174T and SW480 cells were grown in RPMI 1640 (Sigma). All media were supplemented with 10% FBS (Biochrom AG) and 1% penicillin/streptomycin (Sigma). Medium for ES cells contained 15% FBS, 1% NEAA (Gibco), 6 μg/ml LIF, and 0.05 mM β-mercaptoethanol (Sigma). […] Quantification of crystal violet staining was performed by extracting dye with 10% acetic acid and measuring absorbance at 590 nm. IC50 values were calculated using the four parameter logistic equation model. […]
C. Quantification of the staining. […]

Cc1c(C(=O)Nc2ccc(CN)cc2)ncnc1N1CCC(C#N)(c2ccccc2)CC1 [BI8622]
IC50 [1]: 6.8 µM
IC50 ([2]; control Ls174T cells, read-out: IC50 growth inhibition, ctr cells): 8.1 µM
IC50 ([2]; partially HUWE1-depleted Ls174T cells, read-out: IC50 growth inhibition, shHUWE1 cells): 6.5 µM
